# Source: patent US12318435B2, “Recombinant protein produced from cholinesterase gene derived from Pseudomonas aeruginosa and the composition comprising the same for treating or preventing a neurological disease” (priority 2019, dated 2025)
# Experiments:
# Format in all cases: in vivo
# ICR mice = test: Survival rate in pesticide-exposed animal model; settings: female ICR mice, intraperitoneal; 250 μg NP protein, 30 μg carbofuran, 9 mg trichlorfon; NP 40 mins before pesticide; survival observed for 30 mins
# Description: In order to determine the survival rate of the inventive NP protein on pesticide-exposed animal model, following test was performed by the procedure disclosed in the literature (Gupta, Ramesh C., ‘Carbofuran toxicity’, Journal of Toxicology and Environmental Health, Part A, 43:4, pp 383-418, 1994).
# (§1) Specific pathogen-free female ICR mice (about 20 g, aged 6 weeks) were purchased from ORIENT Co. (Seoul, Korea) and acclimated with the experimental environment for 1 week.
# 250 μg of NP protein was intraperitoneally injected to the mice as a test sample group to observe the behavior of the mice for 40 mins and 30 μg of carbofuran and 9 mg of trichlorfon were intraperitoneally injected to the mice to observe the survival rate of the mice for 30 mins.
# The group intraperitoneally injected with only 30 μg of carbofuran or 9 mg of trichlorfon were used as positive control groups to observe the survival rate of the mice and the group intraperitoneally injected with only distilled water […] was used as a negative control group to observe the survival rate of the mice.
# choline = test: Blood level of choline in pesticide-exposed animal model; settings: serum of the mice of Experimental Example 2; for Level of blood acetylcholine, Concentration: absorbance 570 nm
# Description: In order to determine the effect on the blood level of choline of the inventive NP protein in pesticide-exposed animal model, following test was performed by the procedure disclosed in the literature (Choline/Acetylcholine Quantification Colorimetric/Fluorometric Kit, Biovision incorporated 155 S Milpitas Boulevard, Milpitas, Calif. 95035 USA).
# as §1
# (§2) The mice used in Experimental Example 2 intraperitoneally injected with […] of NP protein as a test sample group, were killed with carbon dioxide gas (Shinyang Oxygen Industry, Korea) and the blood was collected from the heart to isolate the serum.
# The choline level of blood serum was determined Choline/Acetylcholine Quantification Colorimetric/Fluorometric Kit (Cat. No. K615-100, Biovision).
# 1 μL of serum was added to 49 μL of buffer solution in the kit and the reaction mixture containing […] of buffer solution, 2 μL of choline probe, 2 μL of ACHE and 2 μL of enzyme mixture solution was added thereto to react together in the shadow at 25° C. for 30 mins.
# 30 mins after the reaction, the absorbance of the reaction solution was determined at 570 nm using by spectrometer (Multiskan Go., Thermo Scientific) and the determined level was transformed into absolute value by comparing with the level of standard curve.
# The level of choline was calculated according to following Math. 1 Blood Level of choline(nmole/mL or micromole)=(calculated level of choline through standard curve)/(the amount of samples in each well;mL). [Math. 1] 3-2. Test Result
# ACHE activity = test: Serum ACHE activity of pesticide-exposed mice; settings: serum of the mice of Experimental Example 2; for ACHE activity, Concentration (mU/mL): 25° C., 570 nm
# Description: as §1, §2
# 30 mins after the reaction, the absorbance of the reaction solution was determined at every 1 min at 570 nm using by spectrometer (Multiskan Go., Thermo Scientific) and the determined level was calculated according to following Math. […] [Math. 2] 4-2. Test Result
Structure (SMILES),Survival rate (%) (ICR mice),amount of acetylcholine (in words) (choline),"Level of blood acetylcholine, Concentration (choline) [nmol/mL]",ACHE activity compared with negative control group (in words) (ACHE activity),"ACHE activity, Concentration (mU/mL) (ACHE activity)"
"COP(=O)(OC)C(O)C(Cl)(Cl)Cl (stereo not shown) [Trichlorfon, trichlorfon]",60,sharply increased amount of acetylcholine,1.4,decreased ACHE activity,117.7
CNC(=O)Oc1cccc2c1OC(C)(C)C2 [Carbofuran],0,sharply increased amount of acetylcholine,1.8,decreased ACHE activity,463.8
